Data published in US4971967A, “Quinolinecarboxylic acid derivatives, antibacterial compositions and use” (Kanebo Ltd, priority 1989, dated 1990).
Values after ≈ are worked out from the molar mass of the structure shown.

Columns and labels:
Format in all cases: cell-based
[1] = test system: Serratia marcescens IAM 1184; experiment: Antibacterial activity (MIC), Serratia marcescens IAM 1184; details: Serratia marcescens, IAM1184, Serratia marcescens IAM 1184, Gram -; read-out: Minimum inhibitory concentration (MIC)
Protocol: (§1) The compounds of the present invention (A, C, D, E, F, G, H, I, J, L, O and P) and the known compound (X) as reference were dissolved in 0.1 N aqueous sodium hydroxide to prepare a solution of 5000 μg/ml in concentration. The compounds of the present invention (B, K, M and N) and the known compound (Y) were dissolved in sterilized distilled water to prepare a solution of 5000 μg/ml in concentration. Each solution was diluted with sterilized distilled water to prepare a standard solution with a concentration of each test compound: 1000 μg/ml. The test was carried out by a method as appointed by Japan Society of Chemotherapy [cf. Chemotherapy, 29, 76-79 (1981)(TOKYO)].

[2] = test system: Micrococcus luteus ATCC 9341; experiment: Antibacterial activity (MIC), Micrococcus luteus ATCC 9341; details: ATCC9341; Micrococcus luteus ATCC 9341, Gram +; read-out: Minimum inhibitory concentration (MIC)
Protocol: as §1

[3] = test system: Escherichia coli NIHJ JC-2; experiment: Antibacterial activity (MIC), E. coli NIHJ JC-2; details: NIHJJC2; Escherichia coli NIHJ JC-2, Gram -; read-out: Minimum inhibitory concentration (MIC)
Protocol: as §1

[4] = test system: Salmonella typhimurium IID 971; experiment: Antibacterial activity (MIC), Salmonella typhimurium IID 971; details: Salmonella enterica, read-out: Minimum inhibitory concentration (MIC)
Protocol: as §1

[5] = test system: Staphylococcus aureus IID 803; experiment: Antibacterial activity (MIC), S. aureus IID 803; details: IID803; Staphylococcus aureus IID 803, Gram +; read-out: Minimum inhibitory concentration (MIC)
Protocol: as §1

Escherichia coli KC-14 = experiment: Antibacterial activity (MIC), E. coli KC-14; details: KC14; Escherichia coli KC-14, Gram -; read-out: Minimum inhibitory concentration (MIC)
Protocol: as §1

[6] = test system: Staphylococcus aureus FDA 209P JC-1; experiment: Antibacterial activity (MIC), S. aureus FDA 209P JC-1; details: FDA209P; Staphylococcus aureus FDA 209P JC-1, Gram +; read-out: Minimum inhibitory concentration (MIC)
Protocol: as §1

Proteus vulgaris OX-19 = experiment: Antibacterial activity (MIC), Proteus vulgaris OX-19; details: OX19; Proteus vulgaris OX-19, Gram -; read-out: Minimum inhibitory concentration (MIC)
Protocol: as §1

[7] = test system: Streptococcus faecalis IID 682; experiment: Antibacterial activity (MIC), Streptococcus faecalis IID 682; details: Enterococcus faecalis, IID682, read-out: Minimum inhibitory concentration (MIC)
Protocol: as §1

[8] = test system: Pseudomonas aeruginosa NCTC 10490; experiment: Antibacterial activity (MIC), P. aeruginosa NCTC 10490; details: Pseudomonas aeruginosa, NCTC10490, Pseudomonas aeruginosa NCTC 10490, Gram -; read-out: Minimum inhibitory concentration (MIC)
Protocol: as §1

[9] = test system: Pseudomonas aeruginosa IFO 3445; experiment: Antibacterial activity (MIC), P. aeruginosa IFO 3445; details: Pseudomonas aeruginosa, IFO3445, Pseudomonas aeruginosa IFO 3445, Gram -; read-out: Minimum inhibitory concentration (MIC)
Protocol: as §1

Enterobacter cloacae 963 = experiment: Antibacterial activity (MIC), Enterobacter cloacae 963; details: Enterobacter cloacae, 963, Enterobacter cloacae 963, Gram -; read-out: Minimum inhibitory concentration (MIC)
Protocol: as §1

[10] = test system: Acinetobacter calcoaceticus AC 54; experiment: Antibacterial activity (MIC), Acinetobacter calcoaceticus AC 54; details: AC54; Acinetobacter calcoaceticus AC 54, Gram -; read-out: Minimum inhibitory concentration (MIC)
Protocol: as §1

[11] = test system: Klebsiella pneumoniae PCI-602; experiment: Antibacterial activity (MIC), Klebsiella pneumoniae PCI-602; details: PCI602; Klebsiella pneumoniae PCI-602, Gram -; read-out: Minimum inhibitory concentration (MIC)
Protocol: as §1

[12] = test system: Morganella morganii IFO 3848; experiment: Antibacterial activity (MIC), Morganella morganii IFO 3848; details: Morganella morganii, IFO3848, Morganella morganii IFO 3848, Gram -; read-out: Minimum inhibitory concentration (MIC)
Protocol: as §1

[13] = test system: Pseudomonas aeruginosa E-2; experiment: Antibacterial activity (MIC), P. aeruginosa E-2; details: E2; Pseudomonas aeruginosa E-2, Gram -; read-out: Minimum inhibitory concentration (MIC)
Protocol: as §1

[14] = test system: Bacillus subtilis ATCC 6633; experiment: Antibacterial activity (MIC), Bacillus subtilis ATCC 6633; details: Bacillus subtilis, ATCC6633, Bacillus subtilis ATCC 6633, Gram +; read-out: Minimum inhibitory concentration (MIC)
Protocol: as §1

Shigella sonnei EW-33 = experiment: Antibacterial activity (MIC), Shigella sonnei EW-33; details: Shigella sonnei, EW33, Shigella sonnei EW-33, Gram -; read-out: Minimum inhibitory concentration (MIC)
Protocol: as §1

[15] = test system: Staphylococcus epidermidis IAM-1296; experiment: Antibacterial activity (MIC), S. epidermidis IAM-1296; details: Staphylococcus epidermidis, IAM1296, Staphylococcus epidermidis IAM-1296, Gram +; read-out: Minimum inhibitory concentration (MIC)
Protocol: as §1

[16] = test system: Citrobacter freundii NIHJ 10018-68; experiment: Antibacterial activity (MIC), Citrobacter freundii NIHJ 10018-68; details: Citrobacter freundii, NIHJ10018, Citrobacter freundii NIHJ 10018-68, Gram -; read-out: Minimum inhibitory concentration (MIC)
Protocol: as §1

[17] = test system: Enterobacter aerogenes ATCC 13048; experiment: Antibacterial activity (MIC), Enterobacter aerogenes ATCC 13048; details: Klebsiella aerogenes, ATCC13048; Enterobacter aerogenes ATCC 13048, Gram -; read-out: Minimum inhibitory concentration (MIC)
Protocol: as §1

[18] = test system: Proteus mirabilis IFO 3849; experiment: Antibacterial activity (MIC), Proteus mirabilis IFO 3849; details: IFO3849; Proteus mirabilis IFO 3849, Gram -; read-out: Minimum inhibitory concentration (MIC)
Protocol: as §1

Compound	MIC [1] [µg/mL]	MIC [2] [µg/mL]	MIC [3] [µg/mL]	MIC [4] [µg/mL]	MIC [5] [µg/mL]	MIC (Escherichia coli KC-14) [µg/mL]	MIC [6] [µg/mL]	MIC (Proteus vulgaris OX-19) [µg/mL]	MIC [7] [µg/mL]	MIC [8] [µg/mL]	MIC [9] [µg/mL]	MIC (Enterobacter cloacae 963) [µg/mL]	MIC [10] [µg/mL]	MIC [11] [µg/mL]	MIC [12] [µg/mL]	MIC [13] [µg/mL]	MIC [14] [µg/mL]	MIC (Shigella sonnei EW-33) [µg/mL]	MIC [15] [µg/mL]	MIC [16] [µg/mL]	further results
CN1Cc2csc3c(C(=O)O)c(=O)c4cc(F)c(N5CCC(O)C5)c1c4n23 (centres unmarked) [Compound (G), 9,1-(Methylimino)methano-7-fluoro-8-(3-hydroxy-1-pyrrolidinyl)-5-oxo-5H-thiazolo[3,2-a]quinoline-4-carboxylic acid]	0.78 (≈ 2 µM)	0.39 (≈ 1 µM)	0.1 (≈ 0.257 µM)	0.05 (≈ 0.128 µM)	0.0125 (≈ 0.0321 µM)	0.1 (≈ 0.257 µM)	0.0125 (≈ 0.0321 µM)	0.0125 (≈ 0.0321 µM)	0.05 (≈ 0.128 µM)	0.39 (≈ 1 µM)	0.78 (≈ 2 µM)	0.2 (≈ 0.514 µM)	0.006 (≈ 0.0154 µM)	0.006 (≈ 0.0154 µM)	0.2 (≈ 0.514 µM)	0.78 (≈ 2 µM)	0.006 (≈ 0.0154 µM)	0.05 (≈ 0.128 µM)	0.0125 (≈ 0.0321 µM)	0.78 (≈ 2 µM)	MIC [17]: 0.2 µg/mL (≈ 0.514 µM); MIC [18]: 0.1 µg/mL (≈ 0.257 µM)
CN1Cc2csc3c(C(=O)O)c(=O)c4cc(F)c(N5CCOCC5)c1c4n23 [Compound (I), 9,1-(Methylimino)methano-7-fluoro-8-morpholino-5-oxo-5H-thiazolo[3,2-a]quinoline-4-carboxylic acid]	0.39 (≈ 1 µM)	0.1 (≈ 0.257 µM)	0.1 (≈ 0.257 µM)	0.05 (≈ 0.128 µM)	0.006 (≈ 0.0154 µM)	0.1 (≈ 0.257 µM)	0.006 (≈ 0.0154 µM)	0.025 (≈ 0.0642 µM)	0.05 (≈ 0.128 µM)	0.2 (≈ 0.514 µM)	0.39 (≈ 1 µM)	0.1 (≈ 0.257 µM)	0.006 (≈ 0.0154 µM)	0.006 (≈ 0.0154 µM)	0.1 (≈ 0.257 µM)	0.39 (≈ 1 µM)	0.006 (≈ 0.0154 µM)	0.05 (≈ 0.128 µM)	0.025 (≈ 0.0642 µM)	0.78 (≈ 2 µM)	MIC [17]: 0.2 µg/mL (≈ 0.514 µM); MIC [18]: 0.1 µg/mL (≈ 0.257 µM)
